Measured values: ChEMBL document CHEMBL4842383 (J Med Chem, 2021)
Calls of active or inactive are those of the source. No cut-off for these calls is given here.

Columns and labels:
[1] = Volume of distribution at steady state in Sprague-Dawley rat at 5 mg/kg, iv measured up to 24 hrs by LC-MS/MS analysis; assay type: ADME, organism-based; conditions: in vivo, read-out: Vdss
BaF3 = test: Antiproliferative activity against mouse BaF3 cells transfected with human ETV6-CSF1R assessed as reduction in cell viability measured after 72 hrs by MTS method; conditions: BaF3, 72 h
[2] = Dose normalized AUC (0 to inf) in Sprague-Dawley rat at 20 to 25 mg/kg, po measured up to 24 hrs by LC-MS/MS analysis; assay type: ADME, organism-based; conditions: in vivo, dose 20-25 mg/kg
Aurora kinase A = biological target: T1, Aurora kinase A (Homo sapiens, UniProt O14965); test: Inhibition of recombinant GST-AURKA (residues Ser123 to Ser401) (unknown origin) expressed in Sf9 insect cells using tetra(-LRRASLG) peptide as substrate incubated for 90 mins by ATP Kinase Glo assay
T1 sequence (O14965 whole entry): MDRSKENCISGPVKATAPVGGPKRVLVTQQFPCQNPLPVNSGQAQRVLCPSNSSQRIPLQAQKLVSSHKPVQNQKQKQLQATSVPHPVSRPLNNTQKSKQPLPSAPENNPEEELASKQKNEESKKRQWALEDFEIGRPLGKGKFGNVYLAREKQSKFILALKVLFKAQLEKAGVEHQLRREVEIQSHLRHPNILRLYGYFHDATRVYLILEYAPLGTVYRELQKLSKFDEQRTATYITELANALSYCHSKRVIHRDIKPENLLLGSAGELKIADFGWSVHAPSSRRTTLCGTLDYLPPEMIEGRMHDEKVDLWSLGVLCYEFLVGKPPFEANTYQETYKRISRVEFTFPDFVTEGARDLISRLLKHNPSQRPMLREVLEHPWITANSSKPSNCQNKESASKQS

[3] = biological target: T2, Aurora kinase A (Homo sapiens) (UniProt O14965); test: Inhibition of recombinant GST-AURKA (residues Ser123 to Ser401) (unknown origin) expressed in Sf9 insect cells using tetra(-LRRASLG) peptide as substrate at 1 uM incubated for 90 mins by ATP Kinase Glo assay
T2 sequence (whole entry): T1 sequence (O14965 whole entry)

Aurora kinase B [4] = biological target: T3, Aurora kinase B (Homo sapiens, UniProt Q96GD4); test: Inhibition of human recombinant full length GST-AURKB using tetra(-LRRASLG) peptide as substrate at 0.1 uM incubated for 20 mins by ATP Kinase Glo assay; assay type: biochemical; conditions: Sf9
NFS-60 = test: Antiproliferative activity against mouse NFS-60 cells transfected with human ETV6-CSF1R assessed as reduction in cell viability measured after 72 hrs by MTS method; assay type: functional, cell-based; conditions: NFS-60, 72 h
[5] = Tmax in Sprague-Dawley rat at 20 to 25 mg/kg, po measured up to 24 hrs by LC-MS/MS analysis; assay type: ADME, organism-based; conditions: in vivo, dose 20-25 mg/kg
[6] = Dose normalized Cmax in Sprague-Dawley rat at 20 to 25 mg/kg, po measured up to 24 hrs by LC-MS/MS analysis; assay type: ADME, organism-based; conditions: in vivo, dose 20-25 mg/kg
[7] = Dose normalized AUC (0 to inf) in Sprague-Dawley rat at 5 mg/kg, iv measured up to 24 hrs by LC-MS/MS analysis; assay type: ADME, organism-based; conditions: in vivo
[8] = Half life in Sprague-Dawley rat at 20 to 25 mg/kg, po measured up to 24 hrs by LC-MS/MS analysis; assay type: ADME, organism-based; conditions: in vivo, dose 20-25 mg/kg
[9] = biological target: T4, Macrophage colony-stimulating factor 1 receptor (Homo sapiens, UniProt P07333); test: Inhibition of human recombinant GST-CSF1R (residues L534 to C972) expressed in Sf9 insect cells using poly(Glu,Tyr) as substrate incubated for 20 mins by ATP Kinase Glo assay
[10] = Oral bioavailability in Sprague-Dawley rat at 20 to 25 mg/kg measured up to 24 hrs by LC-MS/MS analysis; assay type: ADME, organism-based; conditions: in vivo, dose 20-25 mg/kg
[11] = Clearance in Sprague-Dawley rat at 5 mg/kg, iv measured up to 24 hrs by LC-MS/MS analysis; assay type: ADME, organism-based; conditions: in vivo
[12] = Half life in Sprague-Dawley rat at 5 mg/kg, iv measured up to 24 hrs by LC-MS/MS analysis; assay type: ADME, organism-based; conditions: in vivo
Aurora kinase B [13] = biological target: T3, Aurora kinase B; test: Inhibition of human recombinant full length GST-AURKB using tetra(-LRRASLG) peptide as substrate incubated for 20 mins by ATP Kinase Glo assay; parameters: species or system Sf9
[14] = biological target: T5, Macrophage colony-stimulating factor 1 receptor (Mus musculus) (UniProt P09581); test: Inhibition of CSF1R phosphorylation in mouse RAW264.7 cells by Western blotting analysis; assay type: cell-based
T5 sequence (whole entry): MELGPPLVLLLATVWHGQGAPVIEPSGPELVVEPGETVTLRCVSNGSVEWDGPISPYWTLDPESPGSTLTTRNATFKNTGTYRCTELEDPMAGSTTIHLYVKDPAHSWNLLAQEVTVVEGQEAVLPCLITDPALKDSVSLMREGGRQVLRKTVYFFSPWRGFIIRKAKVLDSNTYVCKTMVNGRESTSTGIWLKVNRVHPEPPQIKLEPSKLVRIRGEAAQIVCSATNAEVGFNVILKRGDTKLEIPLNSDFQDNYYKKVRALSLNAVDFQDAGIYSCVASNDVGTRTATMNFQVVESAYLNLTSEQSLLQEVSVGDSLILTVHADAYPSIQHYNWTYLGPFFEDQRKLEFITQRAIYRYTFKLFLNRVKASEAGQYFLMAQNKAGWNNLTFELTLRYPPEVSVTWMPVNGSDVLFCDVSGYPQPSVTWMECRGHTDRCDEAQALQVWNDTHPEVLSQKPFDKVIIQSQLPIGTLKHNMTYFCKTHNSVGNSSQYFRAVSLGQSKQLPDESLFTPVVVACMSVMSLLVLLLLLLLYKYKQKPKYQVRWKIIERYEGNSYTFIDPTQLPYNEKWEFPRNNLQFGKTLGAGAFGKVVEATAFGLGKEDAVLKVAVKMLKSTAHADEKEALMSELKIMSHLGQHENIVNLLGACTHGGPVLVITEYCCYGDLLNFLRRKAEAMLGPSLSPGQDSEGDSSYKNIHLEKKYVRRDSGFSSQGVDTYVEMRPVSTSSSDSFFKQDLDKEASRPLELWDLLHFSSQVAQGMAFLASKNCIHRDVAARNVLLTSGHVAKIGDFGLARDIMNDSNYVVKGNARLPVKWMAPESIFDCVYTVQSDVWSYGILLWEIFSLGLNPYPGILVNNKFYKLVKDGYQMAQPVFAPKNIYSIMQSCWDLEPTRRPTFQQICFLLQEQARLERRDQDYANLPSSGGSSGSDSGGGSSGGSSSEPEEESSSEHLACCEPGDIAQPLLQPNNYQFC

[15] = biological target: T4, Macrophage colony-stimulating factor 1 receptor; test: Inhibition of CSF1R phosphorylation in human THP-1 cells by Western blotting analysis; assay type: cell-based
Mus musculus [16] = test: Immunomodulatory activity in mouse MC38 cells inoculated C57BL/6 mouse syngeneic model assessed as increase in cytotoxic CD8+ T cell to M2 like TAM ratio in tumor at 100 mg/kg, po twice a day for 2 weeks by five days on/two days off schedule relative to control; assay type: functional, organism-based; conditions: MC-38
Mus musculus [17] = test: Immunomodulatory activity in mouse MC38 cells inoculated C57BL/6 mouse syngeneic model assessed as increase in M1 to M2 like TAM ratio in tumor at 100 mg/kg, po twice a day for 2 weeks by five days on/two days off schedule relative to control; assay type: functional, organism-based; conditions: MC-38
RAW264.7 = test: Anti-inflammatory activity mouse RAW264.7 cells assessed as inhibition of LPS-induced TNFalpha production by ELISA; assay type: functional, cell-based
BMDM [18] = test: Growth inhibition of CSF2-induced mouse BMDM cell assessed as inhibition of M1 like macrophage growth for 3 days by WST-8 assay; conditions: 72 h
BMDM [19] = test: Growth inhibition of CSF1-induced mouse BMDM cell assessed as inhibition of M2 like macrophage growth incubated for 3 days by WST-8 assay; conditions: 72 h

T4 sequence (P07333 whole entry, the tested form may be a part): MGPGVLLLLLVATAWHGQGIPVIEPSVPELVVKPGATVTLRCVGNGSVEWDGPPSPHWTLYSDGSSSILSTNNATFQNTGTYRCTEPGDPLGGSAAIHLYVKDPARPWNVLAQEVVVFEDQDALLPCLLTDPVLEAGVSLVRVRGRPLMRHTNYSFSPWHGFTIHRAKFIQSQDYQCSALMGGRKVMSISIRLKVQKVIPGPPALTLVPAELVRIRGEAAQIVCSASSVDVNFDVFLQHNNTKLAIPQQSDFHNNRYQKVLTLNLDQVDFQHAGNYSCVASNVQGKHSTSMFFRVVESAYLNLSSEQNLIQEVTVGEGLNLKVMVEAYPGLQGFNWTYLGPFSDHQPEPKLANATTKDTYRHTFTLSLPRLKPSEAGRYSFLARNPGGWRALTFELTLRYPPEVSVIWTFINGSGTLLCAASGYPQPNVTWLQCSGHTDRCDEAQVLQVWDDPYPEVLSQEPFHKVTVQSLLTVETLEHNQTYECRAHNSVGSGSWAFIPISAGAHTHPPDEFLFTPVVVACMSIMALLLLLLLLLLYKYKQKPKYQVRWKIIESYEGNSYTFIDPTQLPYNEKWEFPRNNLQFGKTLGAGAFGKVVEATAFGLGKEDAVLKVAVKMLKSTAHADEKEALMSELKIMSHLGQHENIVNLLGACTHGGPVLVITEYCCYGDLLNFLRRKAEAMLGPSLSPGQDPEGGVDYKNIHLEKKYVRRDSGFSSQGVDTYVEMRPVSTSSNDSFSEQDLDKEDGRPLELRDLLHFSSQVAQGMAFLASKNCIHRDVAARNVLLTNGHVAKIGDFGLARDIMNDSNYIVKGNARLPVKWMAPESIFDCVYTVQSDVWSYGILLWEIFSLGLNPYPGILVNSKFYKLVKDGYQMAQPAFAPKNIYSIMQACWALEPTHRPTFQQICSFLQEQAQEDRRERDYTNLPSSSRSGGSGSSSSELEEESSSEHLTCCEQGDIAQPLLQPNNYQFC
T3 sequence (Q96GD4 whole entry): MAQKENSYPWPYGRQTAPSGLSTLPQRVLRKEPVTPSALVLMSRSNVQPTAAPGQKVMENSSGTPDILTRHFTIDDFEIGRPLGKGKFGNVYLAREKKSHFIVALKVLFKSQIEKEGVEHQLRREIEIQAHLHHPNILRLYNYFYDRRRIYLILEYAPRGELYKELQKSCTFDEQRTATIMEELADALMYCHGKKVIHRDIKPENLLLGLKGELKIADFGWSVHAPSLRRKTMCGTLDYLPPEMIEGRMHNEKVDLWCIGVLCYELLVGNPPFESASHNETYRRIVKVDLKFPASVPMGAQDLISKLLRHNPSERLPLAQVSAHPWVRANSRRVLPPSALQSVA

Row | SMILES | Vd [1] | EC50 (BaF3) | AUCt/dose [2] | inhibition [3] | inhibition (Aurora kinase B [4]) | EC50 (NFS-60) | Tmax [5] | Cmax/dose [6] | AUCt/dose [7] | half-life [8] | IC50 [9] | bioavailability [10] | clearance [11] | half-life [12] | also measured
1 | CN(C)c1ccc2c(Oc3ccc(NC(=O)NCc4ccc(F)cc4)cc3)ncnc2c1 | 1.4 L/kg | 46 nM | 89 ng.hr/mL per mg/kg | 5% | 27% | 69 nM | 0.5 h | 56 ng/mL | 1225 ng.hr/mL per mg/kg | 24.2 h | 8.3 nM | 7.3% | 12.2 mL/min/kg | 3.3 h | IC50 (Aurora kinase A): > 10000 nM
2 | COc1ccc(NC(=O)Nc2ccc(Oc3ncnc4cc(N(C)C)ccc34)cc2)cc1 | 0.7 L/kg | 23 nM | 91 ng.hr/mL per mg/kg | 23% | 34% | 23 nM | 2.7 h | 10.6 ng/mL | 2842 ng.hr/mL per mg/kg | 4 h | 14.1 nM | 3.2% | 5.6 mL/min/kg | 1.6 h | IC50 (Aurora kinase A): > 10000 nM; IC50 (Aurora kinase B [13]): 22.2 nM
3 | COc1ccc(CNC(=O)Nc2ccc(Oc3ncnc4cc(N(C)C)ccc34)cc2)cn1 | 1.4 L/kg | 87 nM | 236 ng.hr/mL per mg/kg | 2% | 18% | 67 nM | 2.3 h | 35 ng/mL | 767 ng.hr/mL per mg/kg | 4.8 h | 12.7 nM | 30.7% | 24.7 mL/min/kg | 1.2 h | 
4 | CN(C)c1ccc2c(Oc3ccc(NC(=O)NCc4ccc(C(F)(F)F)nc4)cc3)ncnc2c1 |  |  |  | 7% | 16% |  |  |  |  |  |  |  |  |  | inhibition [14]: Dose-Dependent Effect; inhibition [15]: Dose-Dependent Effect; Activity (Mus musculus [16]): Active; Activity (Mus musculus [17]): Active; inhibition (RAW264.7): Active
5 | Cc1ccc(CNC(=O)Nc2ccc(Oc3ncnc4cc(N(C)C)ccc34)cc2)cn1 | 1.5 L/kg | 38 nM | 164 ng.hr/mL per mg/kg | 4% | 9% | 68 nM | 3.2 h | 21 ng/mL | 1578 ng.hr/mL per mg/kg | 2.4 h | 11 nM | 10.4% | 5.6 mL/min/kg | 10.5 h | 
6 | COc1ccc(CNC(=O)Nc2ccc(Oc3ncnc4cc(N(C)C)ccc34)cc2)cc1 | 9 L/kg | 91 nM | 15 ng.hr/mL per mg/kg | 6% | 29% | 81 nM | 6 h | 1.7 ng/mL | 1252 ng.hr/mL per mg/kg | 6.7 h | 12.9 nM | 1.6% | 16.5 mL/min/kg | 20.6 h | 
7 | FC(F)(F)c1ccc(CNc2ccc(Cc3c[nH]c4ncc(Cl)cc34)cn2)cn1 [PEXIDARTINIB] |  | 200 nM |  | 63% |  | 294 nM |  |  |  |  |  |  |  |  | IC50 (Aurora kinase B [13]): 643 nM; IC50 (BMDM [18]): > 10000 nM; IC50 (BMDM [19]): 56 nM
